From patent US20250368623A1, “PYRIDAZINONE-DERIVED COMPOUNDS FOR THE MODULATION OF MYC AND FOR MEDICAL USES” (GENETIC INTELLIGENCE, INC, priority 2022, published 2025)
Where two headings read alike, the source gives them in different places.

Key:
[1] = test system: MDA-MB-231; experiment: Mouse xenograft model of TNBC (MDA-MB-231), tumor volume and histopathology; type: in vivo
Method: (§1) The in vivo efficacy of test compounds (e.g., 6-(2,4-dimethylthiazol-5-yl)-2-((1-(pyrido[2,3-d]pyrimidin-4-yl)piperidin-4-yl)methyl)pyridazin-3(2H)-one) on cancer cells is determined using a mouse xenograft model of TNBC (MDA-MB-231). 5×10^6 MDA-MB-231 cells (in 0.2 ml of FBS-free medium containing 50% Matrigel) are injected into the subcutaneous tissue of each mouse. Treatment is initiated (Day 0) when the average tumor volume reaches 100 mm^3. Tumor bearing mice are treated with vehicle and different doses of test compound (15 mg/kg, 35 mg/kg, 50 mg/kg, and 100 mg/kg) orally, once daily, for 3 weeks. Tumor volumes (mm^3) are measured post-implantation of cells once every 2-3 days throughout the study. At the end of the treatment period, a portion of the tumor tissue is excised and homogenized to analyze the levels of MYC biomarker using ELISA. Blood samples are collected from mice treated with test compound 8 hours after the final dose.

[2] = test system: MDA-MB-231; experiment: Mouse hollow fiber model, TNBC (MDA-MB-231); type: in vivo; details: TNBC MDA-MB-231 hollow fibers s.c. in mice; 50 mg/kg orally once daily for five days; modified MTT; vs Day 5 vehicle
Method: (§2) The in vivo efficacy of test compounds (e.g., 6-(2,4-dimethylthiazol-5-yl)-2-((1-(pyrido[2,3-d]pyrimidin-4-yl)piperidin-4-yl)methyl)pyridazin-3(2H)-one) on cancer cells is determined using the mouse hollow fiber model established at the National Cancer Institute (NCI). Triple negative breast cancer (TNBC) (MDA-MB-231), pancreatic cancer (Mia-PaCa-2), and liver cancer (HepG2) cells are added to differently colored hollow fibers (KrosoFlo@Implant membrane, Green: Lot No.: 20051617, Blue: Lot No.: 20008858, White: Lot No.: 20051615) and sealed at both ends. Three hollow fibers each containing a different cancer line are surgically implanted subcutaneously into both the left and right flanks of mice (total of six hollow fibers per mouse). Drug treatment is initiated on Day 0, three days post implantation of fibers. Each treatment group has 2 mice (4 hollow fibers per cancer type): Group 1: Vehicle control; Group 2: Gemcitabine control dosed intraperitoneally (i.p.) at 50 mg/kg once every three days; Group 3: Test compound dosed orally at 50 mg/kg once daily for five days. […] Mean % net cell growth is calculated using the formula [(mean OD(day5)−mean OD(day0))/(mean OD(day0))×100%]. Mean % inhibition of cell growth due to treatment is calculated relative to the mean % net cell growth of the Day 5 vehicle control for the particular cancer line.

[3] = Body weight and clinical signs in the mouse hollow fiber study; type: in vivo; details: mice, 50 mg/kg orally once daily for 5 days
Method: as §2, with “line. […]” for “line.”

[4] = test system: MYC; experiment: MYC biomarker in tumor homogenate by ELISA, xenograft mice; type: in vivo, mouse; details: for MYC protein levels in tumor homogenate, Mean ± SD: ELISA, vehicle control 41.93 ± 5.38
Method: as §1

[5] = test system: HepG2; experiment: Mouse hollow fiber model, liver cancer (HepG2); type: in vivo; details: liver cancer HepG2 hollow fibers s.c. in mice; 50 mg/kg orally once daily for five days; modified MTT; vs Day 5 vehicle
Method: as §2

[6] = Plasma concentration of test compound in xenograft mice; type: in vivo, mouse; details: for concentration at 8 h: mouse, plasma, oral, tumor bearing mice, read-out: Test compound concentrations in plasma 8 h after last dose, Mean ± SD
Method: as §1

[7] = test system: Mia-PaCa-2; experiment: Mouse hollow fiber model, pancreatic cancer (Mia-PaCa-2); type: in vivo; details: pancreatic cancer Mia-PaCa-2 hollow fibers s.c. in mice; 50 mg/kg orally once daily for five days; modified MTT; vs Day 5 vehicle
Method: as §2

[8] = Body weight and clinical signs in the mouse xenograft study; type: in vivo; details: 15-100 mg/kg orally once daily for 3 weeks, throughout the study
Method: as §1

[9] = 15-100 mg/kg orally once daily for 3 weeks
[10] = 15 mg/kg orally once daily for 3 weeks
[11] = 35 mg/kg orally once daily for 3 weeks
[12] = 50 mg/kg orally once daily for 3 weeks
[13] = 100 mg/kg orally once daily for 3 weeks

SMILES: Cc1nc(C)c(-c2ccc(=O)n(CC3CCN(c4ncnc5ncccc45)CC3)n2)s1 [test compound, 6-(2,4-dimethylthiazol-5-yl)-2-((1-(pyrido[2,3-d]pyrimidin-4-yl)piperidin-4-yl)methyl)pyridazin-3(2H)-one]
- Tumor volume, Mean ([1]; 15 mg/kg orally once daily, Day 0): 93 mm^3
- Tumor volume, Mean ([1]; 15 mg/kg orally once daily, Day 2): 137 mm^3
- Tumor volume, Mean ([1]; 15 mg/kg orally once daily, Day 5): 212 mm^3
- Tumor volume, Mean ([1]; 15 mg/kg orally once daily, Day 8): 330 mm^3
- Tumor volume, Mean ([1]; 15 mg/kg orally once daily, Day 10): 435 mm^3
- Tumor volume, Mean ([1]; 15 mg/kg orally once daily, Day 12): 534 mm^3
- Tumor volume, Mean ([1]; 15 mg/kg orally once daily, Day 14): 749 mm^3
- Tumor volume, Mean ([1]; 15 mg/kg orally once daily, Day 16): 921 mm^3
- Tumor volume, Mean ([1]; 15 mg/kg orally once daily, Day 19): 1157 mm^3
- Tumor volume, Mean ([1]; 15 mg/kg orally once daily, Day 21): 1494 mm^3
- Tumor volume, Mean ([1]; 35 mg/kg orally once daily, Day 0): 92 mm^3
- Tumor volume, Mean ([1]; 35 mg/kg orally once daily, Day 2): 129 mm^3
- Tumor volume, Mean ([1]; 35 mg/kg orally once daily, Day 5): 191 mm^3
- Tumor volume, Mean ([1]; 35 mg/kg orally once daily, Day 8): 307 mm^3
- Tumor volume, Mean ([1]; 35 mg/kg orally once daily, Day 10): 390 mm^3
- Tumor volume, Mean ([1]; 35 mg/kg orally once daily, Day 12): 485 mm^3
- Tumor volume, Mean ([1]; 35 mg/kg orally once daily, Day 14): 739 mm^3
- Tumor volume, Mean ([1]; 35 mg/kg orally once daily, Day 16): 897 mm^3
- Tumor volume, Mean ([1]; 35 mg/kg orally once daily, Day 19): 1101 mm^3
- Tumor volume, Mean ([1]; 35 mg/kg orally once daily, Day 21): 1459 mm^3
- Tumor volume, Mean ([1]; 50 mg/kg orally once daily, Day 0): 94 mm^3
- Tumor volume, Mean ([1]; 50 mg/kg orally once daily, Day 2): 123 mm^3
- Tumor volume, Mean ([1]; 50 mg/kg orally once daily, Day 5): 191 mm^3
- Tumor volume, Mean ([1]; 50 mg/kg orally once daily, Day 8): 295 mm^3
- Tumor volume, Mean ([1]; 50 mg/kg orally once daily, Day 10): 368 mm^3
- Tumor volume, Mean ([1]; 50 mg/kg orally once daily, Day 12): 463 mm^3
- Tumor volume, Mean ([1]; 50 mg/kg orally once daily, Day 14): 716 mm^3
- Tumor volume, Mean ([1]; 50 mg/kg orally once daily, Day 16): 875 mm^3
- Tumor volume, Mean ([1]; 50 mg/kg orally once daily, Day 19): 1078 mm^3
- Tumor volume, Mean ([1]; 50 mg/kg orally once daily, Day 21): 1397 mm^3
- Tumor volume, Mean ([1]; 100 mg/kg orally once daily, Day 0): 88 mm^3
- Tumor volume, Mean ([1]; 100 mg/kg orally once daily, Day 2): 126 mm^3
- Tumor volume, Mean ([1]; 100 mg/kg orally once daily, Day 5): 186 mm^3
- Tumor volume, Mean ([1]; 100 mg/kg orally once daily, Day 8): 290 mm^3
- Tumor volume, Mean ([1]; 100 mg/kg orally once daily, Day 10): 363 mm^3
- Tumor volume, Mean ([1]; 100 mg/kg orally once daily, Day 12): 458 mm^3
- Tumor volume, Mean ([1]; 100 mg/kg orally once daily, Day 14): 652 mm^3
- Tumor volume, Mean ([1]; 100 mg/kg orally once daily, Day 16): 782 mm^3
- Tumor volume, Mean ([1]; 100 mg/kg orally once daily, Day 19): 933 mm^3
- Tumor volume, Mean ([1]; 100 mg/kg orally once daily, Day 21): 1158 mm^3
- Histopathology of tumors compared to the vehicle [1, 9]: dose-dependent decrease in tumor cells, increase in necrosis and decrease in blood vessel formation
- mean tumor volumes compared to the vehicle control on day 21 [1, 9]: dose-dependent decreases
- growth inhibition (mean % inhibition of cell growth) [2]: 88.2%
- changes in body weight versus the vehicle-treated group [3]: no significant changes
- MYC protein levels in tumor homogenate, Mean ± SD [4, 10]: 35.70 ± 2.45 ng/mg tumor homogenate
- MYC protein levels in tumor homogenate, Mean ± SD [4, 11]: 29.55 ± 2.93 ng/mg tumor homogenate
- MYC protein levels in tumor homogenate, Mean ± SD [4, 12]: 29.11 ± 4.66 ng/mg tumor homogenate
- MYC protein levels in tumor homogenate, Mean ± SD [4, 13]: 23.53 ± 4.28 ng/mg tumor homogenate
- MYC biomarker levels in the tumor, trend with dose [4, 9]: dose-dependent decreases
- growth inhibition (mean % inhibition of cell growth) [5]: 28.1%
- concentrations of test compound in the plasma, trend with dose [6, 9]: dose-dependent increases
- concentration at 8 h [6, 10]: 10.3 ± 1.7 ng/mL
- concentration at 8 h [6, 11]: 42.6 ± 29.1 ng/mL
- concentration at 8 h [6, 12]: 59.4 ± 21.9 ng/mL
- concentration at 8 h [6, 13]: 230 ± 111 ng/mL
- growth inhibition (mean % inhibition of cell growth) [7]: 63.0%
- Body weight and clinical signs of animals [8]: apparently normal
